# Laboratory results reported in patent publication US9012482B2, “Drug containing benzophenone derivative or its salt” (Toyama Chemical Co., Ltd., priority 2007, dated 2015).
# What was measured:
# Assay type in all cases: in vivo, mouse (DBA/1 J)
# OPG mRNA = OPG mRNA expression in hind paws of mice with type II collagen-induced arthritis (real-time PCR); settings: 30 mg/kg orally once daily
# Description: Male DBA/1 J mice at 8-week old (Charles River Laboratories Japan, Inc.) were used. Bovine type II collagen (KOKEN CO., LTD.) dissolved at 2 mg/mL in 0.1 mol/L acetic acid was mixed and emulsified with an equal volume of Freund's complete adjuvant (Difco Laboratories, Inc.), and then 0.2 mL of the emulsion was intradermally injected at the tail head of each mouse. The same treatment was carried out 21 days after the first immunization so that type II collagen-induced arthritis was induced in mice. […]
# (§1) RT product (100 ng, equivalent amount to RNA) was mixed with 25 μL of quantitative PCR reagent (qPCR Mastermix, Eurogentec S.A.), 2.5 μL of probe/primer solution (TaqMan gene expression assays tumor necrosis factor (ligand) superfamily member 11 Mus musculus, Applied Biosystems) and RNase-free water (Takara Inc.) in total volume of 50 μL, and then PCR reaction (hold at 50° C. for 2 min, hold at 95° C. for 10 min, 40 cycles at 95° C. for 15 sec and at 60° C. for 1 min) was carried out using real-time PCR system (ABI PRISM 7700 sequence detection system, Applied Biosystems) to measure RANKL mRNA. […] The levels of RANKL mRNA and OPG mRNA were expressed as the normalized ratio to Hprt1 mRNA amount.
# RANKL mRNA = RANKL mRNA expression in hind paws of mice with type II collagen-induced arthritis (real-time PCR)
# Description: Male DBA/1 J mice at 8-week old (Charles River Laboratories Japan, Inc.) were used. Bovine type II collagen (KOKEN CO., LTD.) dissolved at 2 mg/mL in 0.1 mol/L acetic acid was mixed and emulsified with an equal volume of Freund's complete adjuvant (Difco Laboratories, Inc.), and then 0.2 mL of the emulsion was intradermally injected at the tail head of each mouse. The same treatment was carried out 21 days after the first immunization so that type II collagen-induced arthritis was induced in mice. T-5224 was dissolved in the 2-fold molar amount of sodium hydroxide solution, and then water and polyvinylpyrrolidone (PVP) at 3-fold weight of T-5224 were added to yield 3 mg/mL of T-5224-dosing solution. T-5224 at 30 mg/kg was orally administered once daily from 21 to 34 days after the first immunization. PVP solution was administered to the mice in Control group.
# On the next day of final administration, the hind paws were collected. After the excision of claws and skin, they were immersed in RNA-stabilizing agent (RNAlater, Ambion, Inc.) and kept in a refrigerator overnight. Then RNA-stabilizing agent was wiped up, and the hind paws were cryopreserved and crushed by pressing under cooling with the liquid nitrogen. […]
# as §1
# [1] = tested on: femora of mice with type II collagen-induced arthritis; assay: Osteoporosis in femur of mice with type II collagen-induced arthritis: bone density as CT value (μCT)
# Description: The induction of mouse type II collagen-induced arthritis and the preparation of T-5224-dosing solution (1 mg/mL) were carried out by the same procedure in Example 1. T-5224 at 10 mg/kg was orally administered once daily from 21 to 49 days after the first immunization. PVP solution was administered to the mice in Control group.
# The femora isolated on the next day of final administration were fixed with formalin, and then scanned using μCT scanner system (MCT-100CB, Hitachi, Ltd.) (X-ray tube voltage: 90.0 kV, X-ray tube current: 100 iris: 3630, magnification: ×5, resolution: 30 μm). Bone density was evaluated as CT value using 3D CT image (“img” format) assembled by μCT scanner system and bone morphometry software (TRI-3D/BON, Ratoc System Engineering Co., Ltd.) according to the manufacturer's protocol. The evaluation site was set on a metaphyseal slice with 0.35 mm thickness at a point 3% of the length of the femur from the distal growth plate, according to the report of Jochems C. et al. [Arthritis Research and Therapy, 2005, Vol. 7, page R837-R843].
smiles,measurement,setting,value
O=C(O)CCc1cc(C(=O)c2ccc(OC3CCCC3)cc2O)ccc1OCc1ccc2c(O)noc2c1 [T-5224],inhibition of the decrease of OPG mRNA level,OPG mRNA; days 21 to 34,68%
same,OPG mRNA level (normalized ratio to Hprt1 mRNA amount),"OPG mRNA; collagen-induced arthritis mice, days 21 to 34 after first immunization, Normal 0.375, Control 0.156",0.306
same,inhibition of the increase of RANKL mRNA level,"RANKL mRNA; 30 mg/kg orally once daily, days 21 to 34, hind paws",84%
same,regulatory effect on expression of RANKL/OPG (in words),"RANKL mRNA; hind paws of mice with type II collagen-induced arthritis, 30 mg/kg orally",controlling the expression of RANKL/OPG to normal level
same,RANKL mRNA level (normalized ratio to Hprt1 mRNA amount),"RANKL mRNA; hind paws, collagen-induced arthritis mice, 30 mg/kg orally once daily, days 21 to 34 after first immunization, Normal 0.096, Control 0.927",0.224
same,inhibition of the reduction of CT value,"[1]; 10 mg/kg orally once daily, days 21 to 49, femur",49%
same,CT Value (bone density),"[1]; femur metaphyseal slice, 10 mg/kg orally once daily, days 21 to 49 after first immunization, Normal 761, Control 657",708
same,effect on development of osteoporosis in femora (in words),"[1]; non-arthritic region of mice with type II collagen-induced arthritis, 10 mg/kg orally",inhibited the development of osteoporosis in femora
